Legend:
Assay type in all cases: biochemical
secretory G4 = molecular target: T1, secretory G4 (Homo sapiens, UniProt Q9Y2A9, R328H); experiment: β1,3-galactosyltransferase activity of the secretory G4; conditions: receptor substrate 10 mmol/l, 37° C., 16 hours
T1 construct: made in house; host or cells: Sf21 insect cells infected with recombinant baculovirus from pVL1393-F2G4
T1 sequence (Q9Y2A9 38-372 R328H): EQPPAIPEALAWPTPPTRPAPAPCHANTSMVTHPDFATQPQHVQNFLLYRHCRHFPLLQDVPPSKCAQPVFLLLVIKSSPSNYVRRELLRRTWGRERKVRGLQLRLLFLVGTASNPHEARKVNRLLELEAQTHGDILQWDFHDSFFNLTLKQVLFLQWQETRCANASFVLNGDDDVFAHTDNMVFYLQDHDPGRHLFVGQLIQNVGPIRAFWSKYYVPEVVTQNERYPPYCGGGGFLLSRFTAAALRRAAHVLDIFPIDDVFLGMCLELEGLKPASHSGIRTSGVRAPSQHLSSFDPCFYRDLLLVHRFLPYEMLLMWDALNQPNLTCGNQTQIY
Experimental: On the other hand, when β1,3-galactosyltransferase activity of the secretory G4 was measured by using GlcNAc and GlcNAcβ1-3Galβ1-4Glc as receptor substrates, the activity was not detected.
(§1) The glycosyltransferase reaction was carried out as follows. The reaction was carried out at 37° C. for 16 hours in 40 μl of an assay solution [50 mmol/l MOPS (pH 7.5), 5 mmol/l UDP-GlcNAc (SIGMA), 5 mmol/l MnCl2, 10 mmol/l of a sugar chain substrate and 10 μl of the above eluate]. Next, the reaction solution was treated at 100° C. for 5 minutes and then centrifuged at 10,000×g for 20 minutes to obtain the supernatant, and a portion thereof was analyzed by using HPAE/PAD (High Performance Anion Pulsed Amperometoric Detection; manufactured by DIONEX). The specific method was carried out in the usual way [Anal. Biochem., 189, 151 (1990), J. Biol. Chem., 273, 433 (1998)].

secreted G3 = molecular target: T2, secreted G3 (Homo sapiens, UniProt Q9NY97); experiment: β1,3-galactosyltransferase activity of the secreted G3; conditions: acceptor substrate, method of Example 11(2)
T2 construct: made in house; host or cells: Sf21 insect cells infected with recombinant baculovirus from pVL1393-F2G3
T2 sequence (Q9NY97 31-397): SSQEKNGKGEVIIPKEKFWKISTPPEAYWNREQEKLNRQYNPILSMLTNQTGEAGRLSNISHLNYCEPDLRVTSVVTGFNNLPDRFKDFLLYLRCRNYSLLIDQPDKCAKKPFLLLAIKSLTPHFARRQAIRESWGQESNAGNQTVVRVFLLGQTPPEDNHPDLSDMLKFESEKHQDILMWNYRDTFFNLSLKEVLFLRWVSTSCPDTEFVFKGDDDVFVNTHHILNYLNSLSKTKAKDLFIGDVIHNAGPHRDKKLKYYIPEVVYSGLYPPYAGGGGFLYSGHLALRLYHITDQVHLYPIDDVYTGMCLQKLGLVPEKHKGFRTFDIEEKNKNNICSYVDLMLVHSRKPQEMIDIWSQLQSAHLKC
Experimental: as §1
On the other hand, when β1,3-galactosyltransferase activity of the secreted G3 was measured by using GlcNAc and GlcNAcβ1-3Galβ1-4Glc as acceptor substrates, the activity was not detected. […] The method described in Example 11(2) was used.

secreted G7 = molecular target: T3, secreted G7 (Homo sapiens, UniProt Q9C0J1); experiment: β1,3-galactosyltransferase activity of the secreted G7; conditions: acceptor substrate, method of Example 11(2)
T3 construct: made in house; host or cells: Sf21 insect cells infected with recombinant baculovirus from pVL1393-F2G7
Experimental: as §1
On the other hand, when β1,3-galactosyltransferase activity of the secreted G7 was measured by using GlcNAc and GlcNAcβ1-3Galβ1-4Glc as acceptor substrates, the activity was not detected. […] The method described in Example 11(2) was used.

Measured: β1,3-galactosyltransferase activity

T3 sequence (Q9C0J1 56-378): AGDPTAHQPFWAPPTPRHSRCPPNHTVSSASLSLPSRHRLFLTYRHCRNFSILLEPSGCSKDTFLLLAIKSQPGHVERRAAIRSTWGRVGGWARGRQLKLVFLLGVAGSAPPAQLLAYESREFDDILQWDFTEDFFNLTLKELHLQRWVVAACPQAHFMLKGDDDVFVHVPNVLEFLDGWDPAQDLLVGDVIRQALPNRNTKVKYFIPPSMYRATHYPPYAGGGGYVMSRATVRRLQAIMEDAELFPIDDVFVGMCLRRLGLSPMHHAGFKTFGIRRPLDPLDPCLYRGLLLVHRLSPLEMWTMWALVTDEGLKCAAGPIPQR

CC(=O)N[C@H]1C(O)O[C@H](CO)[C@@H](O)[C@@H]1O (stereo partly drawn) [GlcNAc, N-acetylglucosamine]
not detected: all assays above

CC(=O)N[C@H]1[C@H](O[C@H]2[C@@H](O)[C@@H](CO)O[C@@H](O[C@H]3[C@H](O)[C@@H](O)C(O)O[C@@H]3CO)[C@@H]2O)O[C@H](CO)[C@@H](O)[C@@H]1O (stereo partly drawn) [GlcNAcβ1-3Galβ1-4Glc]
not detected: all assays above

Source: patent US7972815B2, “Method of producing sugar chain using human G4 polypeptide” (Kyowa Hakko Kirin Co., Ltd., priority 1999, dated 2011)
